Measurements from ChEMBL document CHEMBL1201862, “PubChem BioAssay data set” (2004).
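Protocol summary: plate cells (96-well), add compound at 5 concentrations, incubate 48 h, interpolate endpoints linearly. The concentration for 50% growth inhibition is given as GI50.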 Calls of active or inactive are those of the source. Rule as the data show it: active = GI50 up to about 1.1 µM and inactive = higher. Non-standard residues stand in square brackets, D forms with d. Residues, ends and D or L forms follow the SMILES beside them. ξ: configuration not given here. *: point of attachment. NMeY = CN[C@@H](Cc1ccc(O)cc1)C(=O)O; Cbz = O=C(OCc1ccccc1)*; ξA = CC(N)C(=O)O

How the values were obtained:
Test in all cases: NCI-60 cell line screen, 48 h
HOP-92 = test system: HOP-92
MDA-MB-231 = test system: MDA-MB-231
SNB-75 = test system: SNB-75
HOP-62 = test system: HOP-62
IGROV-1 = test system: IGROV-1
HCC 2998 = test system: HCC 2998
SK-MEL-28 = test system: SK-MEL-28
HT-29 = test system: HT-29
A549 = test system: A549
UACC-257 = test system: UACC-257
OVCAR-4 = test system: OVCAR-4
MOLT-4 = test system: MOLT-4
SK-MEL-5 = test system: SK-MEL-5
SK-MEL-2 = test system: SK-MEL-2
786-0 = test system: 786-0
SF-295 = test system: SF-295
MDA-MB-435 = test system: MDA-MB-435
SF-539 = test system: SF-539
HCT-116 = test system: HCT-116
COLO 205 = test system: COLO 205

SMILES	GI50 (HOP-92)	GI50 (MDA-MB-231)	GI50 (SNB-75)	GI50 (HOP-62)	GI50 (IGROV-1)	GI50 (HCC 2998)	GI50 (SK-MEL-28)	GI50 (HT-29)	GI50 (A549)	GI50 (UACC-257)	GI50 (OVCAR-4)	GI50 (MOLT-4)	GI50 (SK-MEL-5)	GI50 (SK-MEL-2)	GI50 (786-0)	GI50 (SF-295)	GI50 (MDA-MB-435)	GI50 (SF-539)	GI50 (HCT-116)	GI50 (COLO 205)
COc1ccc(C[C@@H](C(=O)NCC(N)=O)N(C)C(=O)[C@@H]2CCCN2C(=O)[C@H](CC(C)C)NC(=O)C(C)NC(=O)OCc2ccccc2)cc1 (stereo not given in full) (Cbz-[ξA]LP[NMeY](Me)G-NH2)	> 100 µM (inactive)	> 100 µM (inactive)	> 100 µM (inactive)	> 100 µM (inactive)	> 100 µM (inactive)	> 100 µM (inactive)	> 100 µM (inactive)	> 100 µM (inactive)	> 100 µM (inactive)	> 100 µM (inactive)	> 100 µM (inactive)	> 100 µM (inactive)	> 100 µM (inactive)	> 100 µM (inactive)	> 100 µM (inactive)	> 100 µM (inactive)	> 100 µM (inactive)	> 100 µM (inactive)	> 100 µM (inactive)	> 100 µM (inactive)
COC(=O)CN(CC1O[C@@H]2OC(C)(C)O[C@@H]2C1NC(C)=O)C(=O)OCc1ccccc1 (stereo not given in full)	> 100 µM (inactive)	> 100 µM (inactive)	> 100 µM (inactive)	> 100 µM (inactive)	> 100 µM (inactive)	> 100 µM (inactive)	> 100 µM (inactive)	> 100 µM (inactive)	> 100 µM (inactive)	> 100 µM (inactive)	> 100 µM (inactive)	> 100 µM (inactive)	> 100 µM (inactive)	> 100 µM (inactive)	> 100 µM (inactive)	> 100 µM (inactive)	> 100 µM (inactive)	> 100 µM (inactive)	> 100 µM (inactive)	> 100 µM (inactive)
CN(C)c1ccc(/C=C2\N=C(c3ccc([N+](=O)[O-])cc3)OC2=O)cc1	27.1 µM (inactive)	64.6 µM (inactive)	> 100 µM (inactive)	> 100 µM (inactive)	> 100 µM (inactive)	27.4 µM (inactive)	> 100 µM (inactive)	72.6 µM (inactive)	91 µM (inactive)	57.3 µM (inactive)	> 100 µM (inactive)	> 100 µM (inactive)	> 100 µM (inactive)	> 100 µM (inactive)	90.8 µM (inactive)	> 100 µM (inactive)	81.8 µM (inactive)	74.5 µM (inactive)	34.8 µM (inactive)	99.1 µM (inactive)
Cc1nc(N)nc(N)c1-c1ccc(Cl)c(Cl)c1 [METOPRINE]	7.6 µM (inactive)	0.466 µM (active)	11.5 µM (inactive)	1.12 µM (inactive)	2.54 µM (inactive)	2.91 µM (inactive)	4.6 µM (inactive)	0.258 µM (active)	0.0325 µM (active)	3.85 µM (inactive)	37.9 µM (inactive)	0.607 µM (active)	0.409 µM (active)	30.8 µM (inactive)	0.273 µM (active)	0.411 µM (active)	0.356 µM (active)	1.21 µM (inactive)	0.0399 µM (active)	10.4 µM (inactive)
C/C(CC(O)(C(F)(F)F)C(F)(F)F)=N\NC(N)=S	> 10 µM (inactive)	> 10 µM (inactive)	> 10 µM (inactive)	> 10 µM (inactive)	> 10 µM (inactive)	> 10 µM (inactive)	> 10 µM (inactive)	> 10 µM (inactive)	> 10 µM (inactive)	> 10 µM (inactive)	> 10 µM (inactive)	> 10 µM (inactive)	> 10 µM (inactive)	> 10 µM (inactive)	> 10 µM (inactive)	> 10 µM (inactive)	> 10 µM (inactive)	> 10 µM (inactive)	> 10 µM (inactive)	> 10 µM (inactive)
O=c1[nH]c2nc[nH]c2c(=O)n1C1CCCCC1	> 100 µM (inactive)	> 100 µM (inactive)	> 100 µM (inactive)	> 100 µM (inactive)	> 100 µM (inactive)	> 100 µM (inactive)	> 100 µM (inactive)	> 100 µM (inactive)	> 100 µM (inactive)	> 100 µM (inactive)	> 100 µM (inactive)	> 100 µM (inactive)	> 100 µM (inactive)	72.9 µM (inactive)	> 100 µM (inactive)	> 100 µM (inactive)	> 100 µM (inactive)	> 100 µM (inactive)	> 100 µM (inactive)	> 100 µM (inactive)
COc1ccc(/N=N/C(=N\c2ccccc2)c2ccc(N(CCC#N)CCC#N)cc2)cc1	> 100 µM (inactive)	22.9 µM (inactive)	38.3 µM (inactive)	89.5 µM (inactive)	23.4 µM (inactive)	33.2 µM (inactive)	> 100 µM (inactive)	47.9 µM (inactive)	49.2 µM (inactive)	23.8 µM (inactive)	45.3 µM (inactive)	28.8 µM (inactive)	47.1 µM (inactive)	30.3 µM (inactive)	60.4 µM (inactive)	31.2 µM (inactive)	56.4 µM (inactive)	28 µM (inactive)	43.4 µM (inactive)	14.1 µM (inactive)
